Measured values reported in patent US11707474B2, “Methods for treating acute myeloid leukemia and related conditions” (GlycoMimetics, Inc., priority 2018, dated 2023).

Columns and labels:
KG1 = assay: Flow cytometry, binding of E-selectin-PE conjugate to KG1 cells; type: cell-based, human; conditions: 100 nM
Description: (§1) These findings indicate that hypomethylating agents, including 5-azacytidine, may increase the adhesion of leukemic blasts in the bone marrow and therefore hinder the intended anti-leukemic effect. This could explain a source of chemoresistance, and potential for relapse, in patients treated with hypomethylating agents.

KG1 cells [1] = assay: Static adhesion of KG1 cells to E-selectin coated plates; type: cell-based, human; conditions: compared to control treated KG1 cells
Description: as §1

KG1 cells [2] = assay: Systemic KG1 AML model survival; type: in vivo, NSG female mice; conditions: 5 mg/kg IP days 7, 10, 13, 16, 19 alone
Procedure: The potential relevance of these in vitro observations was assessed in NSG female mice with pre-existing disseminated KG1 cells and treated with a compound of Formula (I) (40 mg/kg, IP, QD for 14 days), 5-azacytidine (5 mg/kg, IP, administered on days 7, 10, 13, 16, and 19 (5 doses total)), or the combination of both compounds. Under the conditions of the assay, the median survival time of mice treated with saline alone or a compound of Formula (I) was 69.5 and 69 days, respectively (FIG. 9). Administration of a compound of Formula (I) with 5-azacytidine increased median survival time beyond that obtained with 5-azacytidine treatment alone (>104 days versus 88 days; P=0.014, FIG. 9).

Nc1ncn([C@@H]2O[C@H](CO)[C@@H](O)[C@H]2O)c(=O)n1 [5-azacytidine, reference compound]
increase in cell binding of E-selectin-PE conjugate (KG1): 38%
increase in static adhesion to E-selectin coated plates (KG1 cells [1]): 57%
median survival time (KG1 cells [2]): 88 days
